Experimental data taken from ChEMBL document CHEMBL1938333, “Novel, potent and orally bioavailable indolizidinone-derived inhibitors of the hepatitis C virus NS3 protease” (Bioorg Med Chem Lett, 2012).

Tests used:
[1] = tested on: Hepatitis C virus; assay: Antiviral activity against HCV1b infected in human 1b-Rluc cells by replicon assay; assay type: functional, organism-based, Hepacivirus hominis; conditions: genotype 1b
[2] = Oral bioavailability in Sprague-Dawley rat at 10 mg/kg; assay type: ADME, organism-based; conditions: in vivo
[3] = Clearance in Sprague-Dawley rat at 1 mg/kg, iv; assay type: ADME, organism-based; parameters: dose 1 mg/kg, route intravenous; conditions: in vivo
[4] = Lipophilicity, log D of the compound; assay type: physicochemical; conditions: octanol/water
[5] = Mean residence time in Sprague-Dawley rat at 1 mg/kg, iv; assay type: ADME, organism-based; parameters: dose 1 mg/kg, route intravenous; conditions: in vivo
[6] = tested on: Hepatitis C virus; assay: Inhibition of HCV1b NS3/4A protease by FRET assay; parameters: species or system Hepatitis C virus subtype 1b

EC50 [1] | bioavailability [2] | clearance [3] | logD [4] | MRT [5] | IC50 [6] | Compound
75 nM | 21% | 11.2 mL/min/kg | 3.54 | 75.6 min | 1 nM | C=C[C@@H]1C[C@]1(NC(=O)[C@@H]1C[C@@H](Oc2cc(-c3nc(C(C)C)cs3)nc3c(Cl)c(OCCOC)ccc23)[C@H]2CC[C@H](C(C)C)C(=O)N21)C(=O)NS(=O)(=O)C1CC1
– | – | – | – | – | 47 nM | C=C[C@@H]1C[C@]1(NC(=O)[C@@H]1C[C@@H](Oc2cc(-c3nc(C(C)C)cs3)nc3c(C)c(OC)ccc23)[C@H]2CCCC(=O)N21)C(=O)NS(=O)(=O)C1CC1
213 nM | 44% | 14.8 mL/min/kg | 4.5 | 52.8 min | 3 nM | C=C[C@@H]1C[C@]1(NC(=O)[C@@H]1C[C@@H](Oc2cc(-c3nc(C(C)C)cs3)nc3c(C)c(OC)ccc23)[C@H]2CC[C@H](C(C)C)C(=O)N21)C(=O)NS(=O)(=O)C1CC1
818 nM | – | – | – | – | 2 nM | C=C[C@@H]1C[C@]1(NC(=O)[C@@H]1C[C@@H](Oc2cc(OCC)nc3c(C)c(OC)ccc23)[C@H]2CC[C@H](C(C)C)C(=O)N21)C(=O)NS(=O)(=O)C1CC1
– | – | – | – | – | 2.6 nM | C=C[C@@H]1C[C@]1(NC(=O)[C@@H]1C[C@@H](Oc2cc(-c3csc(NC(C)C)n3)nc3c(Cl)c(OC)ccc23)CN1C(=O)[C@@H](NC(=O)OC1CCCC1)C(C)(C)C)C(=O)O
76 nM | – | – | 3.85 | – | 2 nM | C=C[C@@H]1C[C@]1(NC(=O)[C@@H]1C[C@@H](Oc2cc(-c3nc(C(C)C)cs3)nc3c(Cl)c(OC)ccc23)[C@H]2CC[C@H](C(C)C)C(=O)N21)C(=O)NS(=O)(=O)C1CC1
144 nM | – | – | – | – | 1 nM | C=C[C@@H]1C[C@]1(NC(=O)[C@@H]1C[C@@H](Oc2cc(-c3cccc(C(C)C)n3)nc3c(Cl)c(OCCOC)ccc23)[C@H]2CC[C@H](C(C)C)C(=O)N21)C(=O)NS(=O)(=O)C1CC1
81 nM | 35% | 26.2 mL/min/kg | 3.26 | 44.4 min | 3 nM | C=C[C@@H]1C[C@]1(NC(=O)[C@@H]1C[C@@H](Oc2cc(-c3nc(C(C)C)cs3)nc3c(Cl)c(OCCN4CCOCC4)ccc23)[C@H]2CC[C@H](C(C)C)C(=O)N21)C(=O)NS(=O)(=O)C1CC1
– | – | – | – | – | 32 nM | C=C[C@@H]1C[C@]1(NC(=O)[C@@H]1C[C@@H](Oc2cc(-c3nc(C(C)C)cs3)nc3c(Cl)c(OC)ccc23)[C@H]2CCCC(=O)N21)C(=O)NS(=O)(=O)C1CC1
